Results from patent publication US7947854B2, “Bis-cationic compounds and use thereof” (The University of Sydney, priority 2003, dated 2011).
In brackets after ≈: the same amount, converted by molar mass.

Columns and labels:
Assay type in all cases: cell-based
[1] = test system: Candida albicans ATCC 10231; test: Antifungal susceptibility testing, microdilution MIC; conditions: Table 6; no visible growth after 48 h at 35° C.; read-out: MIC C. albicans ATCC 10231
Method in brief: (§1)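 Standard microdilution method, run in duplicate, using serial dilutions of cationic compounds.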

[2] = test system: Cryptococcus neoformans ATCC 90112; test: as above; conditions: Table 6; no visible growth after 72 h at 35° C.; read-out: MIC C. neof. ATCC 90112
Method in brief: as §1

[3] = test system: Aspergillus flavus ATCC 204 304; test: In vitro antifungal activity, filamentous fungi, NCCLS M38-A
From the text: (§2) The assay used for filamentous fungi (Aspergillus; Scedosporium; Fusarium) was that published by the National Committee for Clinical Laboratory Standards. 2002. Reference Method for Broth Dilution Antifungal Susceptibility Testing of Filamentous Fungi: Approved Standard. NCCLS document M38-A.Villanova, Pa., USA.

[4] = test system: Aspergillus fumigatus ATCC 204 305; test: as above
From the text: as §2

[5] = test system: Aspergillus terreus ATCC 03-232-378; test: as above
From the text: as §2

[6] = test system: Fusarium solani 04-132-4207; test: as above
From the text: as §2

[7] = test system: Scedosporium apiospermum 1-003-056; test: as above
From the text: as §2

[8] = test system: Scedosporium prolificans 1-003-040; test: as above
From the text: as §2

[9] = test system: Candida albicans ATCC 10231; test: In vitro antifungal activity, yeasts, NCCLS M27-A; conditions: Table 9
From the text: (§3) The assay used for yeasts (Candida; Cryptococcus) is that of the National Committee for Clinical Laboratory Standards. 1997. Reference Method for Broth Dilution Antifungal Susceptibility Testing of Yeasts: Approved Standard. NCCLS document M27-A.Villanova, Pa., USA as published in Ghannoum, M. A., A. S. Ibrahim, Y. Fu, M. C. Shafiq, J. E Edwards, Jr. and R. S. Criddle. 1992. Susceptibility testing of Cryptococcus neoformans: A microdilution technique. J. Clin. Microbiol. 30:2881-2886.

[10] = test system: Cryptococcus neoformans ATCC 90112; test: In vitro antifungal activity, yeasts, NCCLS M27-A; conditions: Table 9
From the text: as §3

MIC [1]: 1.1 µM (≈ 1.02 µg/mL)
MIC [2]: 0.55 µM (≈ 0.508 µg/mL)
MIC [3]: 0.54 µM (≈ 0.499 µg/mL)
MIC Aspergillus flavus ATCC 204 304 [3]: 0.50 µg/mL (≈ 0.541 µM)
MIC [4]: 0.54 µM (≈ 0.499 µg/mL)
MIC Aspergillus fumigatus ATCC 204 305 [4]: 0.50 µg/mL (≈ 0.541 µM)
MIC [5]: 1.1 µM (≈ 1.02 µg/mL)
MIC Aspergillus terreus ATCC 03-232-378 [5]: 1.0 µg/mL (≈ 1.08 µM)
MIC [6]: 0.27 µM (≈ 0.25 µg/mL)
MIC Fusarium solani 04-132-4207 [6]: 0.25 µg/mL (≈ 0.271 µM)
MIC [7]: 0.54 µM (≈ 0.499 µg/mL)
MIC Scedosporium apiospermum 1-003-056 [7]: 0.50 µg/mL (≈ 0.541 µM)
MIC [8]: 4.3 µM (≈ 3.97 µg/mL)
MIC Scedosporium prolificans 1-003-040 [8]: 4.0 µg/mL (≈ 4.33 µM)
MIC [9]: 0.54 µM (≈ 0.499 µg/mL)
MIC Candida albicans ATCC 10231 [9]: 0.50 µg/mL (≈ 0.541 µM)
MIC [10]: 0.54 µM (≈ 0.499 µg/mL)
MIC Cryptococcus neoformans ATCC 90112 [10]: 0.50 µg/mL (≈ 0.541 µM)
SMILES: C[C@@H]1[C@H](O)[C@@H](C)/C=C/C=C/C=C/C=C/C=C/C=C/C=C/[C@H](O[C@@H]2O[C@H](C)[C@@H](O)[C@H](N)[C@@H]2O)C[C@@H]2O[C@](O)(C[C@@H](O)C[C@@H](O)[C@H](O)CC[C@@H](O)C[C@@H](O)CC(=O)O[C@H]1C)C[C@H](O)[C@H]2C(=O)O [Amphotericin B, reference compound]
